Measured values as given in paper PMC12135709, “Discovery of the First Selective and Potent PROTAC Degrader for the Pseudokinase TRIB2” (European journal of medicinal chemistry, 2024).

Molecular target: T1, TRIB2 (Homo sapiens, UniProt Q92519)
T1 sequence (Q92519 1-343): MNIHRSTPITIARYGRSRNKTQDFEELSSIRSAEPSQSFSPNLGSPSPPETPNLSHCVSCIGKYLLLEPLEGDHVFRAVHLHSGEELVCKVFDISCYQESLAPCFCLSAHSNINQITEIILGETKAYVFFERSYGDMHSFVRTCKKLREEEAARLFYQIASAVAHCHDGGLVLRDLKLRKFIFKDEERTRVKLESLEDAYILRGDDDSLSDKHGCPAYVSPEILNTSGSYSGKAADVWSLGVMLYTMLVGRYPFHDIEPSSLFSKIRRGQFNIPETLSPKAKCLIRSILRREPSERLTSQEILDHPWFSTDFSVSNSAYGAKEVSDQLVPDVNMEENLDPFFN
Experiment: radiometric […]-ATP kinase assay with recombinant human TRIB2; supported by CETSA in PC3 cells
Type: biochemical

Row | IC50 | SMILES
1 | 65.2 nM | O=C1CCC(N2C(=O)c3ccc(NCCCCCCCCCC(=O)N4CCc5ccc(NC(=O)c6n[nH]c7ccc(-c8cccnc8F)cc67)cc5C4)cc3C2=O)C(=O)N1 (centres unmarked) [5k, N-(2-(10-((2-(2,6-dioxopiperidin-3-yl)-1,3-dioxoisoindolin-5-yl)amino)-decanoyl)-1,2,3,4-tetrahydroisoquinolin-7-yl)-5-(2-fluoropyridin-3-yl)-1H-indazole-3-carboxamide]
2 | 0.74 nM | O=C(Nc1ccc2c(c1)CNCC2)c1n[nH]c2ccc(-c3cccnc3F)cc12 [compound 1, 5-(2-fluoropyridin-3-yl)-N-(1,2,3,4-tetrahydroisoquinolin-7-yl)-1H-indazole-3-carboxamide]
